Laboratory results: US20260097047A1, “Small molecule inhibitors of the ribosome biogenesis factor NVL2” (Board of Regents, The University of Texas System, priority 2023, published 2026)
Read-outs that look alike come from different tables or passages of the source.

System: HCT116 cells
Assay: Cell viability assay (CellTiter-Glo, 72 hours) in HCT116 human colorectal cancer cells
Format: cell-based
Summary of the method: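 Ten-point IC50 came from an asymmetric five-parameter fit of luminescence corrected to vehicle wells. ATP content was measured by CellTiter-Glo 72 h after dosing at 37 °C. Cells were seeded at 2,000/well the day before, with 0.5% DMSO in all wells.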

[1] = Table 8, analogs of scaffold drawing 43 defined by R^2, R^3, X/Y, W, read-out: Activity (IC50 class, cell viability assay)
[2] = cell viability assay, Table 10 analogs of scaffold drawing 45 defined by R2, R3, X/Y, W, read-out: Activity
[3] = Table 7, cell viability assay, CellTiter-Glo, 72 hours, scaffold drawing 42 with R^2, R^3, X/Y, Z, read-out: Activity

IC50 [1]	IC50 [2]	IC50 [3]	Structure (SMILES)
< 500 nM			CC#CCN1C(=O)c2ccccc2Sc2cc(NC(=O)C3CC3)cnc21 [—CH2CCMe; cPr; CH/CH; N]
< 500 nM			CC#CCN1C(=O)c2ccc(Cl)cc2Sc2cc(NC(=O)[C@H]3C[C@@H](OC)C3)ccc21 [—CH2CCMe; cis-3-MeOcBu; CCI/CH; CH]
< 500 nM			CC#CCN1C(=O)c2cc(F)ccc2Sc2cc(NC(=O)[C@H]3C[C@@H](OC)C3)ccc21 [—CH2CCMe; cis-3-MeOcBu; CH/CF; CH]
< 500 nM			CC#CCN1C(=O)c2cc(F)ccc2Sc2cc(NC(=O)[C@H]3C[C@@H](OC)C3)cnc21 [—CH2CCMe; cis-3-MeOcBu; CH/CF; N]
< 500 nM	< 500 nM		CC#CCN1C(=O)c2ccccc2Sc2cc(NC(=O)C3CC(OC)C3)ccc21 (stereo not drawn) [—CH2CCMe; cis-3-MeOcBu; CH/CH; CH]
< 500 nM			CC#CCN1C(=O)c2ccc(Cl)cc2Sc2cc(NC(=O)[C@H]3C[C@@H](O)C3)ccc21 [—CH2CCMe; cis-3-OH-cBu; CCI/CH; CH]
< 500 nM			CC#CCN1C(=O)c2ccc(Cl)cc2Sc2cc(NC(=O)[C@H]3C[C@@H](O)C3)cnc21 [—CH2CCMe; cis-3-OH-cBu; CCI/CH; N]
< 500 nM			CC#CCN1C(=O)c2ccccc2Sc2cc(NC(=O)[C@H]3C[C@@H](O)C3)ccc21 [—CH2CCMe; cis-3-OH-cBu; CH/CH; CH]
< 500 nM			CC#CCN1C(=O)c2ccccc2Sc2cc(NC(=O)c3ccoc3)ccc21 [—CH2CCMe; furan-3-yl; CH/CH; CH]
< 500 nM			CC#CCN1C(=O)c2ccc(Cl)cc2Sc2cc(NC(=O)C3COC3)ccc21 [—CH2CCMe; oxetan-3-yl; CCl/CH; CH]
< 500 nM			CC#CCN1C(=O)c2cc(F)ccc2Sc2cc(NC(=O)C3COC3)ccc21 [—CH2CCMe; oxetan-3-yl; CH/CF; CH]
< 500 nM			CC#CCN1C(=O)c2ccccc2Sc2cc(NC(=O)C3COC3)ccc21 [—CH2CCMe; oxetan-3-yl; CH/CH; CH]
1000 to 5000 nM			CC#CCN1C(=O)c2ccccc2Sc2cc(NC(=O)C3CCNC3)ccc21 (stereo not shown) [—CH2CCMe; pyrrolidin-3-yl; CH/CH; CH]
< 500 nM			CC#CCN1C(=O)c2cc(F)ccc2Sc2cc(NC(=O)C3CC3COC)ccc21 (stereo not drawn) [—CH2CCMe; trans-2-MeOCH2-cPr; CH/CF; CH]
< 500 nM	< 500 nM		CC#CCN1C(=O)c2ccc(Cl)cc2Sc2cc(NC(=O)[C@H]3C[C@H](OC)C3)ccc21 [—CH2CCMe; trans-3-MeOcBu; CCl/CH; CH]
< 500 nM	< 500 nM		CC#CCN1C(=O)c2ccc(F)cc2Sc2cc(NC(=O)[C@H]3C[C@H](OC)C3)cnc21 [—CH2CCMe; trans-3-MeOcBu; CF/CH; N]
< 500 nM			CC#CCN1C(=O)c2cc(F)ccc2Sc2cc(NC(=O)[C@H]3C[C@H](OC)C3)cnc21 [—CH2CCMe; trans-3-MeOcBu; CH/CF; N]
< 500 nM			CC#CCN1C(=O)c2ccc(Cl)cc2Sc2cc(NC(=O)[C@H]3C[C@H](O)C3)cnc21 [—CH2CCMe; trans-3-OH-cBu; CCl/CH; N]
< 500 nM			CC#CCN1C(=O)c2cc(F)ccc2Sc2cc(NC(=O)[C@H]3C[C@H](O)C3)ccc21 [—CH2CCMe; trans-3-OH-cBu; CH/CF; CH]
< 500 nM			CC#CCN1C(=O)c2ccccc2Sc2cc(NC(=O)[C@H]3C[C@H](O)C3)ccc21 [—CH2CCMe; trans-3-OH-cBu; CH/CH; CH]
< 500 nM			O=C(CC1COC1)Nc1ccc2c(c1)Sc1ccc(F)cc1C(=O)N2CC#CC1CC1 [—CH2CC^cPr; (oxetan-3-yl)CH2; CH/CF; CH]
< 500 nM			O=C(CC1COC1)Nc1ccc2c(c1)Sc1ccccc1C(=O)N2CC#CC1CC1 [—CH2CC^cPr; (oxetan-3-yl)CH2; CH/CH; CH]

The next lines start with the compound.

Structure (SMILES)	IC50 [1]	IC50 [2]	IC50 [3]
CC#CCN1C(=O)c2ccccc2Sc2cc(NC(=O)C3CCCCC3)cnc21 [—CH2CCMe; cHex; CH/CH; N]	< 500 nM		
CC#CCN1C(=O)c2ccccc2Sc2cc(NC(=O)C3CCCC3)cnc21 [—CH2CCMe; cPent; CH/CH; N]	< 500 nM		
CC#CCN1C(=O)c2ccccc2Sc2cc(NC(=O)c3ccoc3)cnc21 [—CH2CCMe; furan-3-yl; CH/CH; N]	< 500 nM		
CC#CCN1C(=O)c2ccc(F)cc2Sc2cc(NC(=O)C3CCCO3)cnc21 (stereo not shown) [—CH2CCMe; tetrahydrofuran-2-yl; CF/CH; N]	< 500 nM		
CC#CCN1C(=O)c2cc(F)ccc2Sc2cc(NC(=O)C3CCCO3)cnc21 (stereo not shown) [—CH2CCMe; tetrahydrofuran-2-yl; CH/CF; N]	< 500 nM		
CC#CCN1C(=O)c2ccccc2Sc2cc(NC(=O)C3CCCO3)cnc21 (stereo not shown) [—CH2CCMe; tetrahydrofuran-2-yl; CH/CH; N]	< 500 nM		
CC#CCN1C(=O)c2cc(F)ccc2Sc2cc(NC(=O)C3CCOC3)cnc21 (stereo not shown) [—CH2CCMe; tetrahydrofuran-3-yl; CH/CF; N]	< 500 nM		
CC#CCN1C(=O)c2ccccc2Sc2cc(NC(=O)C3CCOC3)cnc21 (stereo not shown) [—CH2CCMe; tetrahydrofuran-3-yl; CH/CH; N]	< 500 nM		
COCC1CC(C(=O)Nc2cnc3c(c2)Sc2ccccc2C(=O)N3CC#CC2CC2)C1 (stereo not shown) [—CH2CC^cPr; 3-MeOCH2-cBu; CH/CH; N]	< 500 nM		
O=C(CCCO)Nc1cnc2c(c1)Sc1ccccc1C(=O)N2CC#CC1CC1 [—CH2CC^cPr; (CH2)3OH; CH/CH; N]	< 500 nM		
COCCCC(=O)Nc1cnc2c(c1)Sc1ccccc1C(=O)N2CC#CC1CC1 [—CH2CC^cPr; (CH2)3OMe; CH/CH; N]	< 500 nM		
O=C(CC1COC1)Nc1cnc2c(c1)Sc1ccccc1C(=O)N2CC#CC1CC1 [—CH2CC^cPr; (oxetan-3-yl)CH2; CH/CH; N]	< 500 nM		
COCC=CC(=O)Nc1cnc2c(c1)Sc1ccccc1C(=O)N2CC#CC1CC1 [—CH2CC^cPr; CH═CHCH2OMe; CH/CH; N]	< 500 nM		
COCCC(C)C(=O)Nc1cnc2c(c1)Sc1ccccc1C(=O)N2CC#CC1CC1 (stereo not shown) [—CH2CC^cPr; MeO(CH2)2CHMe-; CH/CH; N]	< 500 nM		
CO[C@H]1C[C@@H](C(=O)Nc2cnc3c(c2)Sc2ccccc2C(=O)N3CC#CC2CC2)C1 [—CH2CC^cPr; cis-3-MeOcBu; CH/CH; N]	< 500 nM		
O=C1c2ccccc2Sc2cc(NC(=O)[C@H]3C[C@@H](O)C3)cnc2N1CC#CC1CC1 [—CH2CC^cPr; cis-3-OH-cBu; CH/CH; N]	< 500 nM		
CO[C@H]1C[C@H](C(=O)Nc2cnc3c(c2)Sc2ccccc2C(=O)N3CC#CC2CC2)C1 [—CH2CC^cPr; trans-3-MeOcBu; CH/CH; N]	< 500 nM		
COCC1CC(C(=O)Nc2cnc3c(c2)Sc2ccccc2C(=O)N3CC#CC2CC2)C1 (stereo not shown) [—CH2CCcPr; 3-MeOCH2-cBu; CH/CH; N]		< 500 nM	
CO[C@H]1C[C@H](C(=O)Nc2cnc3c(c2)Sc2ccccc2C(=O)N3CC#CC2CC2)C1 [—CH2CCcPr; trans-3-MeOcBu; CH/CH; N]		< 500 nM	
C=CCN1C(=O)c2ccccc2Sc2cc(NC(=O)c3ccoc3)ccc21 [—CH2CH═CH2; furan-3-yl; CH/CH; S]			< 500 nM
CCCC=CCN1C(=O)c2ccccc2Sc2cc(NC(=O)c3ccoc3)ccc21 [—CH2CH═CHPr; furan-3-yl; CH/CH; S]			< 500 nM
